This passage reports Activity results from patent US7452887B2, “Quinoline- and isoquinoline-based compounds exhibiting ATP-utilizing enzyme inhibitory activity, and compositions, and uses thereof” (Amphora Discovery Corporation, priority 2004, dated 2008).

One experiment addresses T1, DYRK2 (Homo sapiens, UniProt Q92630).
T1 sequence (Q92630 1-601): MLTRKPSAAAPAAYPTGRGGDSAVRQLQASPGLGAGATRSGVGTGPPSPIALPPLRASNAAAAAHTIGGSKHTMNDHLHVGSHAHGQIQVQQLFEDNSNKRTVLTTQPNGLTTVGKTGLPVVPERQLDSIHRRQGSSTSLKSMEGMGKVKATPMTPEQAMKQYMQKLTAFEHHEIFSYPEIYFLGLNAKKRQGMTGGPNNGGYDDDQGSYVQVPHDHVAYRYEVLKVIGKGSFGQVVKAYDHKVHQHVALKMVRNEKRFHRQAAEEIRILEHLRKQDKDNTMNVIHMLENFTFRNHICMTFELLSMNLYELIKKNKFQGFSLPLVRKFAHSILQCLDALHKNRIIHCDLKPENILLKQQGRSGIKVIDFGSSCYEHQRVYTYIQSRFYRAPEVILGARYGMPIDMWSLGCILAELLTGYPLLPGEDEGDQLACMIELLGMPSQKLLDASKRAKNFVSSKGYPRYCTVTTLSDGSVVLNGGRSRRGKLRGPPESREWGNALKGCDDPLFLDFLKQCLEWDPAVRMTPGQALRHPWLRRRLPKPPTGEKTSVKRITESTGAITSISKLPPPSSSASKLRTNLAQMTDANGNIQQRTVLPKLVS
Kind of experiment: HTS ATP-utilizing enzyme assay, off-chip mobility-shift (Caliper HTS 250). The format is biochemical. The conditions noted are these: test compound 10 μM, kinase listed = active (greater than six-sigma from the mean activity of inactive compounds). The method, boiled down: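 Compounds were tested once at 10 μM against kinase with peptide substrate. After 2.5 hrs at 20° C. to 22° C., reactions were terminated with EDTA, and conversion was read as substrate/product ratio by mobility shift.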

Another experiment addresses MAPKAPK2 (Homo sapiens, UniProt P49137). The description is as above. It is filed as biochemical. The conditions noted are these: test compound 10 μM, kinase listed = active (greater than six-sigma from the mean activity of inactive compounds). The essentials: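 Phosphorylation of a peptide substrate was quantified by Caliper mobility-shift separation of substrate and product after 2.5 h at 20-22 °C, with compounds tested at 10 μM. Inhibition was normalized to EDTA-quenched (100%) and DMSO (0%) controls; six-sigma thresholds flagged actives.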

MAPKAPK2, sequence (P49137 whole entry): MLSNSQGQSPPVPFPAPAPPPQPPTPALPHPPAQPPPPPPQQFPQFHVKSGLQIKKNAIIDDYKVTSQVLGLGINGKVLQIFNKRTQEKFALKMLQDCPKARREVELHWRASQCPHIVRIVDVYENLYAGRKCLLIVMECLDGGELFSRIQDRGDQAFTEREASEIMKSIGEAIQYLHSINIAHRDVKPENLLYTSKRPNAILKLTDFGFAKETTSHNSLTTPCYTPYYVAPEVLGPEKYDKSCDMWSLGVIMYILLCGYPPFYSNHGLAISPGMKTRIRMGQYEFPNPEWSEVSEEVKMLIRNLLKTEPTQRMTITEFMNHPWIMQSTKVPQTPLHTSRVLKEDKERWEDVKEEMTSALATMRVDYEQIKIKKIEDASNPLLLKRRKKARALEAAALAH

With `CN1CCN(c2ccc(Nc3ccnc4ccc(-c5ccc(F)cc5)cc34)cc2)CC1` [6-(4-fluorophenyl)-N-(4-(4-methylpiperazin-1-yl)phenyl)quinolin-4-amine], the Activity result on DYRK2 is “DYRK2”; at MAPKAPK2, “MAPKAPK2”. For `Cc1ccccc1-c1ccc2nccc(Nc3ccc(N4CCN(C)CC4)cc3)c2c1` [N-(4-(4-methylpiperazin-1-yl)phenyl)-6-o-tolylquinolin-4-amine], the figures for the Activity result at DYRK2 and at MAPKAPK2 were “DYRK2” and “MAPKAPK2”, respectively. With `CN1CCN(c2ccc(Nc3ccnc4ccc(-c5ccncc5)cc34)cc2)CC1` [N-(4-(4-methylpiperazin-1-yl)phenyl)-6-(pyridin-4-yl)quinolin-4-amine], the Activity result on DYRK2 was “DYRK2”. As to `c1ccc(-c2ccc3nccc(Nc4ccc(N5CCNCC5)cc4)c3c2)cc1` [6-phenyl-N-(4-(piperazin-1-yl)phenyl)quinolin-4-amine], on MAPKAPK2, the Activity entry was “MAPKAPK2”.

With `CN1CCN(c2ccc(Nc3ccnc4ccc(-c5ccc(O)cc5)cc34)cc2)CC1` [4-(4-(4-(4-methylpiperazin-1-yl)phenylamino)quinolin-6-yl)phenol], the Activity entry at DYRK2 is given as “DYRK2”; at MAPKAPK2, “MAPKAPK2”. `CN1CCN(c2ccc(Nc3ccnc4ccc(-c5cccc6ccccc56)cc34)cc2)CC1` [N-(4-(4-methylpiperazin-1-yl)phenyl)-6-(naphthalen-1-yl)quinolin-4-amine]: the Activity entry on MAPKAPK2 is “MAPKAPK2”. On to `COc1ccc(-c2ccc3nccc(N(C)c4ccc(N5CCN(C)CC5)cc4)c3c2)cc1` [6-(4-methoxyphenyl)-N-methyl-N-(4-(4-methylpiperazin-1-yl)phenyl)quinolin-4-amine], for which the values for the Activity result on DYRK2 and at MAPKAPK2 were “DYRK2” and “MAPKAPK2”, respectively.

With `COc1ccc(-c2ccc3nccc(Nc4ccc(N5CCNCC5)cc4)c3c2)cc1` [6-(4-methoxyphenyl)-N-(4-(piperazin-1-yl)phenyl)quinolin-4-amine], the Activity entry at DYRK2 was “DYRK2”; at MAPKAPK2, “MAPKAPK2”. For `CN1CCN(c2ccc(Nc3ccnc4ccc(-c5ccc6ccccc6c5)cc34)cc2)CC1` [N-(4-(4-methylpiperazin-1-yl)phenyl)-6-(naphthalen-2-yl)quinolin-4-amine], the Activity entry is reported as “DYRK2” on DYRK2 and “MAPKAPK2” at MAPKAPK2.
